Measured values taken from US10028958B2, “Methods of treating cancer with a combination of selected MEK1/2 and AXL inhibitors” (Massachusetts Institute of Technology, priority 2014, dated 2018).

Experiments:
[1] = tested on: ovarian carcinoma and malignant melanoma; experiment: Combination drug treatment cell growth assay, 72 h; type: cell-based
Method: Drugs were purchased from Selleck Chem (Houston, Tex.) and LC Labs (Woburn, Mass.). Cells were grown as described by manufacturers' guidelines. […] For cell growth assays, 5000 cells were plated per well in a 96-well plate, treated with drugs the following day, and counted at 72 h according to either a rezasurin assay (PrestoBlue; Life Technologies, Grand Island, N.Y.) using manufacturer's guidelines, or by flow cytometry following trypsinization and immediate analysis on an LSR-II (BD Biosciences, San Jose, Calif.).

[2] = tested on: surface AXL; conditions: 24 hours; 10 cell lines; more in lines with AXLi/MEKi synergy
Method: Cells were trypsinized, rinsed in 4° C. phospho-buffered saline (PBS)+3% FBS, incubated with 1° Ab (i.e., primary antibody) in PBS+3% FBS for 1 h, rinsed, and fixed overnight in PBS+1% formaldehyde at 4° C. The following day, cells were rinsed, incubated with 2° Ab (i.e., secondary antibody) conjugated to either Alexa647 or Alexa546, rinsed, and analyzed by flow cytometry. Fold-change was determined after subtracting the median fluorescence from control cells stained with the IgG control antibody.

[3] = tested on: AXL pY; experiment: Short term p-AXL up-regulation (bead-based immunoassay); type: cell-based; conditions: 2 h; MDAMB231
Source text: pTyr-RTK measurements used bead-based immunocapture with a pan-pTyr detection antibody (EMD Millipore, Billerica, Mass.). Unless otherwise stated, immunoassays followed manufacturer protocols. Bead-based immunoassays were routinely normalized according to the micro BCA protein assay (Pierce) or cell count (ViCell). ADAM17 (pThr^735) and ADAM10 western blot Abs were from Sigma. Anti-phospho Histone H3 (Ser10) for measuring mitotic index was from EMD Millipore, (Billerica, Mass.). GAPDH (glyceraldehyde-3-phosphate dehydrogenase) and α-actinin were used for Western blotting and purchased from Cell Signaling Technology (Danvers, Mass.). APP Ab was from Abcam (Cambridge, Mass.). Live-cell immunostaining was performed using R&D Systems (Minneapolis, Minn.) Abs. SiRNAs, including non-targeting control siRNA, were packaged as SMARTpool ON-TARGETplus and used with DharmaFECT4 (Thermo Scientific, Tewksbury, Mass.). For ADAM10/17 western blots, lysis was performed with 50 mM tris-HCl (pH 7.5), 10% glycerol, 150 mM NaCl, and 1% NP-40, with complete protease (Roche, Nutley, N.J.) and phosphatase (Boston BioProducts, Ashland, Mass.) inhibitors added immediately before use.

[4] = tested on: panel of cell lines; experiment: Proliferation/cytotoxicity cell count by flow cytometry; type: cell-based; conditions: individual drug treatment; rough approximation
Method: Proliferation and cytotoxicity were assessed by gently rinsing cells, trypsinizing for 15 min, and immediately counting cells by flow-cytometry. Live/dead staining routinely confirmed the majority (>98%) of counted cells to be alive using this procedure. Synergy was calculated using the model of Bliss independence (Bliss, C. I. The toxicity of poisons applied jointly Annals of applied biology 26, 585-615 (1939)), reported herein as the ratio of [observed combination effect size]/[predicted combination effect size], such that values >1 indicate super-additive drug effect, or synergy, and values <1 indicate antagonism. Drug concentrations for synergy measurements were chosen to roughly approximate the IC30 value averaged across the panel of cell lines for the individual drug treatments, and were 20 μM U0126, 7 μM PD325901, and 200 nM R428.

[5] = tested on: sheddase substrates; experiment: Supernatant accumulation of sheddase substrates (ELISA, bead-based immunoassay)
Method: The following inhibitors were used in FIG. 1H, at the following concentrations: metalloproteinase inhibitor BB94 (10 μM; Tocris Bioscience), p38 inhibitor SB203580 (20 μM; Selleck Chem), MEK1/2 inhibitor PD0325901 (10 μM; LC Labs), Met/AXL inhibitor XL-880 (5 μM; Selleck Chem), MEK1/2 inhibitor U0126 (10 μM; Selleck Chem), MEK1/2 inhibitor AZD6244 (10 μM; Selleck Chem), Aurora kinase inhibitor VX-680 (10 μM; Selleck Chem), PI3K inhibitor LY294002 (10 μM; Selleck Chem), JNK1/2 inhibitor JNK-IN-8 (3 μM; courtesy Nathaniel Gray, Harvard Medical School), JNK inhibitor SP600125 (10 μM; LC Labs), EGFR inhibitor gefitinib (1 μM; LC Labs), EGFR inhibitor erlotinib (1 μM; LC Labs), JNK inhibitor TCS-6o (1 μM; Tocris Bioscience), Abl inhibitor imatinib (1 μM; LC Labs), EGFR/HER2 inhibitor lapatinib (1 μM; LC Labs), AXL inhibitor R428 (3 μM; Selleck Chem), Alk5 inhibitor ALX-270-448 (5 μM; Enzo life sciences), AXL/MET inhibitor MP470 (5 μM; Selleck Chem), myosin light chain kinase inhibitor ML7 (1 μM; Sigma), and glycogen synthase kinase 3b inhibitor SB216763 (10 μM; Selleck Chem) Inhibitor concentrations were chosen based roughly on exceeding previously published Ki and IC50 values. The ADAM-10 inhibitor pro-ADAM-10 was from Biozyme, Inc. (St. Joseph, Mo.) and was used at 4 μM.
AXL, MET, TNFR1, and EGF-ligand supernatant measurements were performed using duo-set ELISA kits (R&D Systems, Minneapolis, Minn.). Total RTK measurements for HER2 and HER4 were performed using bead-based immunoassays (EMD Millipore, Billerica, Mass.).
For quantification of supernatant protein levels, cell supernatant was collected at the indicated time-point, spun for 5 min at 300 g, and frozen at −80° C. for future use. Supernatants were routinely normalized to cell count, determined via trypsinization and ViCell (Beckman Coulter, Brea, Calif.), and volumes were kept consistent across treatments.
As shown in FIG. 3A-3B, MDA-MB231 cells were treated with siRNA as described above and were seeded in 96-well plates at equal 90% confluency. Media was changed at 48 h post-transfection, and 24 h later supernatant was collected and cells were analyzed by live-cell immunostaining. For proADAM10 treatment, cells were seeded in 96-well plates at 90% confluency, treated with inhibitor or buffer control the following day, and supernatant was collected 24 h later.

[6] = tested on: p-JNK; experiment: Short term BB94-elicited downstream phosphosignaling (bead-based immunoassay); type: cell-based; conditions: MDA-MB231; co-treatment with BB94; 2 h
[7] = tested on: LOX-IMVI cells; experiment: Xenograft mouse model of melanoma; design: species or system mice; conditions: in vivo
Method: For the xenograft melanoma experiment, 7 week old female athymic nude mice (Taconic) were injected with 1×10^6 LOX-IMVI cells in 1:1 Matrigel:HBSS subcutaneously in each flank (Yang, D., et al. “RasGRP3, a Ras activator, contributes to signaling and the tumorigenic phenotype in human melanoma.” Oncogene 30, no. 45: 4590-4600 (2011)). 7 days post-cell injection, tumors were measured by calipers and mice were ranked by tumor size and semi-randomly divided into 6 groups of equal distribution in tumor size, with 10 mice per group. […]
Tumor volumes was measured two to three times a week, estimated using the spherical tumor volume formula V=4/3πr^3, where r is averaged from 4 caliper measurements performed by two blinded researchers. […] For metastasis quantification, the numbers of metastases were counted in paraffin-embedded, H&E-stained sections, by a blinded researcher. Upon sacrifice, blood was collected via cardiac puncture into a heparinized syringe, immediately centrifuged at 2000×g for 20 min, and plasma fraction was stored at −80° C. for later quantification of receptor levels by ELISA and bead-based immunoassay.

[8] = tested on: supernatant TIMP-1 and -3; experiment: Antibody microarray analysis of MDA-MB231 supernatant; type: cell-based; conditions: 24 h; MDAMB231; Ab-microarray
Method: MDA-MB231 cells were plated in 10 cm plates at 70% confluency, treated the following day with either DMSO or PD325901, and supernatant was collected 24 hours (h) later. Using L-1000 RayBio (Norcross Ga.) microarrays, supernatant was processed according to manufacturer instructions. Two biological replicate samples were analyzed for the control and MEKi conditions, with one sample undiluted and the other diluted 1:5 in growth media. Each array contains duplicate antibody spots, and so a total of n=4 replicates was used to determine significant changes in supernatant proteins. Only proteins measured more than four standard deviations above background for at least one condition were included in the analysis. Gene set enrichment analysis was performed as previously described using gene ontology (GO) gene sets (Subramanian, A. et al., Gene set enrichment analysis: a knowledge-based approach for interpreting genome-wide expression profiles. Proc Natl Acad Sci USA 102, 15545-15550 (2005)). […] The other top gene-sets were “intrinsic to membrane”, “integral to membrane”, “receptor activity”, and “intrinsic to plasma membrane”. The highest enrichment score in PD325901-treated cells was for “hematopoietin interferon class-D200 domain cytokine receptor binding” comprising 10 non-transmembrane proteins, with a corresponding p-value of 0.003.

[9] = tested on: ADAM17; experiment: ADAM17 dimerization (s-EGS cross-linking, western blot); type: cell-based; conditions: 3 h; MDA-MB231, MDA-MB157, BT549
Method: For each condition, two confluent 15 cm plates of cells were serum-starved for 4 h, treated with inhibitor for 3 h, rinsed with 4° C. PBS, incubated with 0.5 mg/ml sulfo-EGS (Pierce) for 30 min., and lysed in 1% NP40 buffer. Lysates were clarified, precleared with agarose resin, incubated with protein A/G resin (Pierce) and anti-ADAM17 antibody (R&D Systems Duo-set) overnight, washed, and then boiled in denaturing lysis buffer. Methods roughly follow previously described protocols (Miller, M. A., Meyer, A. S., Beste, M. T., Lasisi, Z., Reddy, S., Jeng, K. W., Chen, C. H., Han, J., Isaacson, K., Griffith, L. G. et al. (2013). ADAM-10 and -17 regulate endometriotic cell migration via concerted ligand and receptor shedding feedback on kinase signaling, Proc Natl Acad Sci USA 110, E2074-E2083; Xu, P., Liu, J., Sakaki-Yumoto, M., and Derynck, R. (2012). TACE activation by MAPK-mediated regulation of cell surface dimerization and TIMP3 association, Sci Signal 5, ra34).

[10] = tested on: MDA-MB231-LM2 cells; experiment: Orthotopic xenograft model of TNBC: tumor growth, metastasis, immunostaining, plasma receptors; type: in vivo, mice; conditions: primary tumors, 21 days after treatment
Method: For orthotopic mammary transplant assays, 6-week-old female NOD/SCID-gamma mice (JAX) were anesthetized by intraperitoneal (i.p.) injection of 125-250 mg/kg body weight of Avertin (reconstituted in PBS), followed by i.p. injection of 100 μL, of 12 μg/mL buprenorphine for analgesia. A small incision was made on the right flank, and 250,000 MDA-MB231-LM2 cells in 25 μL, of HBSS were injected into the right #4 fat pad using a 25-μL Hamilton syringe. Mice received three additional i.p. injections of 100 μL, of 12 μg/mL buprenorphine at 12 h intervals following the surgery. […] Twenty (20) days post-surgery, when tumor size was palpable, mice were ranked by tumor size and semi-randomly divided into four groups of equal distribution in tumor size. […]
MET and AXL levels were quantified by measuring fluorescent staining intensity over a line drawn radially from the tumor edge towards the tumor core. […] Regions with morphology characteristic of stroma or necrosis were generally avoided during quantification. Peak intensities along the line were confirmed by visual inspection as corresponding to cell membranes, and were quantified and indexed according to the distance from the tumor edge.

For `COc1cc2c(Oc3ccc(NC(=O)C4(C(=O)Nc5ccc(F)cc5)CC4)cc3F)ccnc2cc1OCCCN1CCOCC1` [foretinib], the “efficacy of combination treatment with MAPK and RTK inhibitors (cell count)” value [1] was “efficacious”.

In the case of `N#CC(=C(/N)Sc1ccccc1N)/C(C#N)=C(\N)Sc1ccccc1N` [U0126], the “surface AXL” value [2] is reported as “increase surface AXL”, the “total AXL pY” value [3] is reported as “increases” and the “IC30 value averaged across the panel of cell lines” value [4] is reported as about 20 µM. For the same compound, the “supernatant accumulation of sheddase substrates” value ([5]; 24 h, each dot a different cell line, ELISA) was “reduces supernatant accumulation of sheddase substrates” and the “supernatant levels of multiple sheddase substrates (AREG, HBEGF, TGFα, TNFR1, AXL, MET, HER2, HER4)” value ([5]; MDA-MB231 cells) was “consistently reduce supernatant levels of multiple sheddase substrates”.

In the case of `Nc1nc(Nc2ccc3c(c2)CC[C@@H](N2CCCC2)CC3)nn1-c1cc2c(nn1)-c1ccccc1CCC2` [R428], the “MPi-evoked p-JNK increase on co-treatment” value [6] is reported as “eliminated”, the “IC30 value averaged across the panel of cell lines” value [4] is reported as about 0.2 µM and the overall survival [7] is reported as “no significant effect on overall survival”.

For `CNC(=O)c1cc(Oc2ccc(NC(=O)Nc3ccc(Cl)c(C(F)(F)F)c3)cc2)ccn1` [sorafenib], the “efficacy of combination treatment with MAPK and RTK inhibitors (cell count)” value [1] was “effective”.

`O=C(NOC[C@H](O)CO)c1ccc(F)c(F)c1Nc1ccc(I)cc1F` [PD325901] was tested, and the “supernatant TIMP-1 and -3” value [8] was “decreases supernatant TIMP-1 and -3”, the “surface AXL” value [2] was “increase surface AXL” and the ADAM17 homodimerization [9] was “increased ADAM17 dimerization”. The “IC30 value averaged across the panel of cell lines” value [4] was about 7 µM, the “AXL and MET ectodomain immunostaining near the tumor edge” value [10] was “up-regulation of AXL, and MET to a lesser degree” and the “supernatant RTK accumulation” value ([5]; 24 h, multiple cancer types) was “reduced supernatant RTK accumulation”.

`S=C(NCc1ccc2c(c1)OCO2)N1CCN(c2ncnc3c2oc2ccccc23)CC1` [MP470, amuvatinib] was tested, and the “efficacy of combination treatment with MAPK and RTK inhibitors (cell count)” value [1] was “efficacious”.
